Measurements taken from US6677433B2 (The Regents of the University of California, priority 2001, dated 2004).
Like-named read-outs stand apart in the source and are kept apart here.

Columns and labels:
[1] = tested on: Gliadins; test: Reductant specificity of gliadins (mBBr, native gel, densitometer); assay type: biochemical, durum wheat; set-up: Gliadin, % Relative Reduction, α / Gliadin, % Relative Reduction, β / Gliadin, % Relative Reduction, γ: concentration or dose not given beside the values; conditions: Thioredoxin = 100
Description: (§1) For isolation of insoluble storage proteins, semolina (0.2 g) was extracted sequentially with 1 ml of the following solutions for the indicated times at 25° C.; (1) 50 mM Tris-HCl, pH 7.5 (20 min); (2) 70% ethanol (2 hr); and (3) 0.1 M acetic acid (2 hr). During extraction, samples were placed on an electrical rotator and, in addition, occasionally agitated with a vortex mixer. After extraction with each solvent, samples were centrifuged (12,000 rpm for 5 min) in an Eppendorf microfuge and, supernatant fractions were saved for analysis. In between each extraction, pellets were washed with 1 ml of water, collected by centrifugation as before and the supernatant wash fractions were discarded. By convention, the fractions are designated: (1) albumin/globulin; (2) gliadin; and (3) glutenin.
(§2) Reactions were carried out in 100 mM Tris-HCl buffer, pH 7.9. As indicated, 0.7 μg NTR and 1 μg thioredoxin (both from E. coli unless specified otherwise) were added to 70 μl of this buffer containing 1 mM NADPH and 10 μg of target protein.
To resolve the different types of gliadins, native polyacrylamide gel electrophoresis was performed in 6% gels (a procedure designed to separate gliadins into the four types) as described by Bushuk and Zillman (Bushuk, W. et al. (1978), Can. J. Plant Sci. 58:505-515) and modified for vertical slab gels by Sapirstein and Bushuk (Sapirstein, H. D. et al. (1985), Cereal Chem. 62:372-377). A gel solution in 100 ml final volume contained 6.0 g acrylamide, 0.3 g bisacrylamide, 0.024 g ascorbic acid, 0.2 mg ferrous sulfate heptahydrate and 0.25 g aluminum lactate. The pH was adjusted to 3.1 with lactic acid. The gel solution was degassed for 2 hr. on ice and then 0.5 ml of 3% hydrogen peroxide was added as a polymerization catalyst. The running buffer, also adjusted to pH 3.1 with lactic acid, contained 0.5 g aluminum lactate per liter. Duration of electrophoresis was approximately 4 hr., with a constant current of 50 mA. Electrophoresis was terminated when the solvent front, marked with methyl green tracking dye, migrated to about 1 cm from the end of the gel.
(§3) The Polaroid negatives of fluorescent gels and prints of wet protein stained gels were scanned with a laser densitometer (Pharmacia-LKB UltroScan XL). Fluorescence was quantified by evaluating peak areas after integration with GelScan XL software.
The gliadin fraction is made up of four different protein types, designated α, β, γ and ω, which can be separated by native polyacrylamide gel electrophoresis under acidic conditions (Bushuk, W. et al. (1978), Can. J. Plant Sci. 58:505-515; Kasarda, D. D. et al. (1976), Adv. Cer. Sci. Tech. 1:158-236; Sapirstein, H. D. et al. (1985), Cereal Chem. 62:372-377; and Tatham, A. S. et al. (1990), Adv. Cer. Sci. Tech. 10:1-78). Except for the ω) gliadins, each species contains cystine (S—S) groups and thus has the potential for reduction by thioredoxin. In this study, following incubation with the indicated additions, proteins were derivatized with mBBr, and fluorescence was visualized after acidic-polyacrylamide gel electrophoresis. The lanes in the second gliadin gel in this study were as follows: 1. Control: no addition. 2. GSH: reduced glutathione. 3. GSH/GR/NADPH: reduced glutathione, glutathione reductase (from spinach leaves) and NADPH. 4. NGS: NADPH, reduced glutathione, glutathione reductase (from spinach leaves) and glutaredoxin (from E. coli). 5. NGS+NTS: combination of 4 and 6. 6. NTS: NADPH, NTR, and thioredoxin (both proteins from E. coli). 7. MET/T(Ec): β-mercaptoethanol and thioredoxin (E. coli). 8. DTT/T(Ec): DTT and thioredoxin (E. coli). 9. NTS(−T): same as 6 except without thioredoxin. 10. NGS+NTS,-Gliadin: same as 5 except without the gliadin fraction.

[2] = tested on: Glutenins; test: Reductant specificity of glutenins (mBBr/SDS-PAGE, densitometer); assay type: biochemical, durum wheat; set-up: concentration or dose not given beside the values
Description: as §1, §2
SDS-polyacrylamide electrophoresis of the mBBr-derivatized samples was performed in 15% gels at pH 8.5 as described by Laemmli, U.K. (1970), Nature 227:680-685. Gels of 1.5 mm thickness were developed for 16 hr. at a constant current of 9 mA.
as §3

[3] = tested on: castor seed 2S protein; assay type: biochemical, Ricinus communis
[4] = tested on: egg white proteins; test: Reduction of egg white proteins (mBBr/SDS-PAGE); assay type: biochemical, chicken; conditions: 1 hr at room temperature
Description: Dried chicken egg white was purchased from Sigma Chemical Co. About 80% of the total proteins in egg white are allergens. A solution of 20 mg/ml egg white was resuspended in PBS. Since not all the material was dissolved, it was centrifuged at 14,000 RPM for 2 min. The soluble egg white proteins were used for the reduction study using mBBr fluorescent labelling and SDS-polyacrylamide gel electrophoresis analysis. The treatments used were the control (no reductant), NTS, DTT plus thioredoxin, reduced glutathione (GSH) and reduced glutathione/glutathione reductase/NADPH. Reactions were carried out in PBS with 23 microliters of the soluble proteins from the 20 mg/ml egg white suspension in a final volume of 100 microliters. In the NTS, 7.5 mM NADPH, 2.4 micrograms thioredoxin and 2.1 micrograms NTR were used. When thioredoxin was reduced by DTT, NADPH and NTR were omitted and DTT was added to 1.5 mM. The GSH concentration used was 3 mM. For reduction by the GSH/GR/NADPH system, 3 mM GSH, 4 micrograms GR and 7.5 mM NADPH were used. The mixture was incubated for 1 hr at room temperature. After incubation, 7 microliters of 80 mM mBBr was added and the reaction continued for 15 min at room temperature. […] Samples were then analyzed by SDS-polyacrylamide gel electrophoresis.

[5] = tested on: pepsin; test: Pepsin assay in simulated gastric fluid; assay type: in vitro ADME, porcine; conditions: thioredoxin-reduced form in milk, SGF 37° C.
Description: BLG, 640 μg, or milk, 1 mg protein (i.e., about 30 μl), was incubated with or without the thioredoxin system (NTS) at either 4° C. […] The BLG, 320 μg, or milk, 500 μg protein, was then treated in 200 μl of simulated gastric fluid (SGF) as described by Astwood, J. D. et al. (1996), “Stability of food allergens to digestion in vitro”, Nature Biotechnol. 14:1269-1273. SGF consists of 0.32% pepsin (w/v) and 30 mM NaCl adjusted at pH 1.2 with HCl (Board of Trustees (ed.) 1995, Simulated Gastric Fluid, TS., pp. 2053 in the United States Pharmacopeia 23, The National Formulary 18. United States Pharmacopeial Convention, Inc. Rockville, Md.). The reaction mixture was incubated at 37° C. and stopped by adding 0.375-fold volume of 160 mM Na2CO3 (ca. pH 7) after 0, 0.25, 1, 2, 4, 8, 15, 30 and 60 min incubation. The protein mixture was then subjected to SDS-PAGE (15% gels) and stained for protein with Coomassie blue as described below. As indicated, the allergenicity of the digested samples was determined by skin test analysis.

[6] = tested on: atopic dogs; test: Feeding challenges with BLG, upper GI index; assay type: in vivo, dog
Description: Reduction of 80% pure BLG (a mixture of the A and B forms) was carried out for each dog in 100 ml of water. Each gram of BLG was treated by adding an aqueous mixture of 104 mg of NADPH, 1 mg of E. coli thioredoxin and 1 mg of E. coli NTR. The reactions occurred in a shaker at 125 rpm at 37° C. for 45 min. Samples were stored overnight at 4° C. The following day untreated (control) or treated BLG, 2.5 gm was mixed with a 12 oz. can of P/D food (Hills) and fed to a dog. Unchallenged animals received dog food alone without BLG while control animals received dog food with untreated BLG. Dogs were initially fed ¼ can of untreated food to initiate gastric flow. After 15 min, they were then fed at 3 intervals separated by 15 min ⅓ of a can of food that had been mixed with 2.5 g of either untreated or thioredoxin treated BLG. During these intervals dogs were monitored and their GI response assessed. Dogs were then observed and their response recorded at hourly intervals for the next 5 hr.
The digestion response of the food challenged dogs described above was assessed by assigning numbers to the timing, volume and fluidity of vomit induced by feeding. Fluidity: no vomit=0, solid vomit=1, liquid vomit=2, liquid with blood or bile vomit=3. Volume: no vomit=0, small vomit=1 and large vomit=2. Timing: delayed vomit=1, immediate vomit=2.

[7] = molecular target: thioredoxin (Escherichia coli, UniProt P0AA25)
[8] = tested on: trypsin; test: Trypsin proteolysis of purified milk allergen proteins; assay type: biochemical; conditions: 2 μg trypsin
Description: The analysis of the reduction was done using the mBBr/SDS-PAGE techniques. Further in this study, when 10 μg of an NTS reduced purified milk allergen protein, β-lactoglobulin (Sigma Chemical Co.), was treated with 2 μg of trypsin, proteolysis was 100% as compared with only 50% for the identically trypsin treated oxidized β-lactoglobulin. […] However, 10 μg of purified […] reduced by the NTS was proteolyzed 80% by trypsin. Also 10 μg of α-lactalbumin reduced by 0.8 μg of thioredoxin and 0.5 mM DTT was 100% proteolyzed by 2 μg of trypsin.

| Molecule | Gliadin, % Relative Reduction, Aggregate (proteins not entering the gel) [1] | Gliadin, % Relative Reduction, α [1] | Gliadin, % Relative Reduction, β [1] | Gliadin, % Relative Reduction, γ [1] | Glutenin, % Relative Reduction, 30-40 kDa ([2]; Thioredoxin = 100) | Glutenin, % Relative Reduction, 40-60 kDa ([2]; Thioredoxin = 100) | Glutenin, % Relative Reduction, 60-110 kDa ([2]; Thioredoxin = 100) | further results |
| --- | --- | --- | --- | --- | --- | --- | --- | --- |
| N[C@@H](CCC(=O)N[C@@H](CS)C(=O)NCC(=O)O)C(=O)O [Glutathione, reduced glutathione, reference compound] | 60.1% | 36.4% | 68.1% | 60.6% |  |  |  | Glutenin, % Relative Reduction, 30-40 kDa [2]: 29%; Glutenin, % Relative Reduction, 40-60 kDa [2]: 51%; Glutenin, % Relative Reduction, 60-110 kDa [2]: 31%; Relative Reduction (%) [3]: 0%; effectiveness in reducing egg white proteins [4]: ineffective reductant |
| Thioredoxin: E. coli thioredoxin reduced by NADPH and NTR | 100.0% | 100.0% | 100.0% | 100.0% | 100% | 100% | 100% |  |
| Treated: BLG reduced with NADPH, E. coli thioredoxin and NTR |  |  |  |  |  |  |  | time to digestion [5]: ≤ 60 s; Upper GI Index ([6]; dog 6GCB1, Treated Exp. A, Control Exp. B): 0; Upper GI Index ([6]; dog 6GCB3, BLG 2.5 g in dog food, Control Exp. A, Treated Exp. B): 0; Upper GI Index ([6]; dog 6GCB4, Treated Exp. A, Control Exp. B): 6; Upper GI Index ([6]; dog 6GCB6, Treated Exp. A, Control Exp. B): 0; Upper GI Index ([6]; dog 6GCB7, Control Exp. A, Treated Exp. B): 3; gastric reflux that disappeared ([6]; repeated feeding trials, on average): about 70% |
| erabutoxin b: short postsynaptic snake neurotoxin |  |  |  |  |  |  |  | reduction of the toxin [7]: significantly reduced |
| α-lactalbumin: purified milk allergen (protein, UniProt P00711 20-142, looked up) Alpha-lactalbumin: EQLTKCEVFRELKDLKGYGGVSLPEWVCTTFHTSGYDTQAIVQNNDSTEYGLFQINNKIWCKDDQNPHSSNICNISCDKFLDDDLTDDIMCVKKILDKVGINYWLAHKALCSEKLDQWLCEKL |  |  |  |  |  |  |  | proteolysis by trypsin ([8]; 10 μg oxidized protein): no noticeable proteolysis; proteolysis by trypsin ([8]; 10 μg protein reduced by 0.8 μg thioredoxin and 0.5 mM DTT): 100% |
| Glutaredoxin: E. coli glutaredoxin with glutathione reductase, glutathione and NADPH (protein, UniProt P68688 1-85, looked up, with glutathione reductase, glutathione, NADPH) Glutaredoxin 1: MQTVIFGRSGCPYCVRAKDLAEKLSNERDDFQYQYVDIRAEGITKEDLQQKAGKPVETVPQIFVDQQHIGGYTDFAAWVKENLDA | 61.5% | 43.5% | 83.3% | 79.7% | 40% | 72% | 50% |  |
